Results published in patent US20160106102A1, “KNOWN AND NEW HETEROCYCLIC COMPOUNDS AS PEST CONTROL AGENTS” (BAYER CROPSCIENCE AKTIENGESELLSCHAFT, priority 2013, published 2016).
Where two headings read alike, the source gives them in different places.

How the values were obtained:
[1] = log P determination by LC-MS in the acidic range; format: physicochemical
Excerpt: The LC-MS determination in the acidic range is effected at pH 2.7 using 0.1% aqueous formic acid and acetonitrile (contains 0.1% formic acid) as eluents, linear gradient from 10% acetonitrile to 95% acetonitrile. Alternatively, the determination is effected in the acidic range at pH 2.3 using 0.1% aqueous phosphoric acid and acetonitrile as eluents; linear gradient from 10% acetonitrile to 95% acetonitrile.

Myzus persicae = Myzus persicae - sachet test; format: in vivo; conditions: 100% = all animals killed
Procedure: Myzus persicae—Sachet Test Solvent: 2% by vol. of N-methylpyrrolidone • 2% by vol. of diacetone alcohol To produce an appropriate active ingredient formulation, the active ingredient is mixed with the specified amounts of solvent and the concentrate is diluted to the desired concentration with water. The active ingredient formulation is added to a specific nutrient medium in the desired concentration by pipetting. This plate is sealed and combined with a further plate populated with the green peach aphid (Myzus persicae). After the desired time, the kill in % is determined. 100% means that all the animals have been killed; 0% means that no animals have been killed.

[2] = application rate of 30 ppm in nutrient medium
[3] = application rate of 6 ppm in nutrient medium
[4] = Table 2, compounds of the formula (I-2), acidic range pH 2.7 or pH 2.3
[5] = pH 2.7, LC-MS in the acidic range, read-out: log P (acid)
[6] = pH 2.7, values given in the synthesis examples and NMR lists, read-out: HPLC-MS: log P
[7] = Myzus persicae, application rate of 30 ppm in nutrient medium, read-out: efficacy (kill in %)
[8] = Table 3, HPLC on reversed-phase column (C 18), 55° C., acidic range (pH 2.7 or pH 2.3)
[9] = amines of the formula (II-1), acidic range pH 2.7 (0.1% formic acid/acetonitrile) or pH 2.3 (0.1% phosphoric acid/acetonitrile)

SMILES	log P (acid) ([1]; LC-MS in the acidic range)	efficacy (kill in %) (Myzus persicae; [2]) [%]	efficacy (kill in %) (Myzus persicae; [3]) [%]	further results
Cc1cc(NC(=O)c2cccnc2)nn1C(=O)NCC1CC1 [Compound I-1-316]	1.65	100	100	
Cc1cc(N(Cc2nc(-c3ccccc3)no2)C(=O)c2cccnc2)nn1Cc1nc(-c2ccccc2)no1 [Compound I-1-305]	3.26	100		
COCn1cnc(NC(=O)c2cccnc2)n1 [Compound I-2-18]		80		log P (acid) [1, 4]: −0.23
Cc1cc(NC(=Nc2ccc(Cl)cc2Cl)c2cccnc2)nn1C [Compound I-1-232]	1.77	100		
Cc1cc(C)nc(-n2cnc(NC(=O)c3cccnc3)n2)n1 [Compound I-2-22]		80		log P (acid) [1, 4]: 0.86
Cc1cc(NC(=O)c2ccnnc2)nn1Cc1ccccc1 [Compound I-1-79, N-(1-Benzyl-5-methyl-1H-pyrazol-3-yl)pyridazine-4-carboxamide]				chromatographic logP [1, 5]: 1.67; chromatographic logP [1, 6]: 1.67; pest or weed control at 30 ppm (Myzus persicae; [7]): 100%
O=C(Nc1ncn(Cc2cccc(Cl)c2)n1)c1cccnc1 [Compound I-2-19]		100		log P (acid) [1, 4]: 1.33
Cc1cc(NC(=O)c2cccnc2)nn1-c1ccc(C(F)(F)F)cn1 [Compound I-1-45]	2.64	100	100	
CC(C)(C)c1ccc(Cn2ccc(NC(=O)c3cccnc3)n2)cc1 [Compound I-1-75]	2.68	100		
O=C(Nc1ccn(Cc2c(F)cccc2F)n1)c1cccnc1 [Compound I-1-68]	1.55	100		
Cc1ccccc1Cn1cnc(NC(=O)c2cccnc2)n1 [Compound I-2-23]		100		log P (acid) [1, 4]: 1.23
Cc1cc(NC(=O)c2cccnc2)nn1Cc1cn2cc(F)ccc2n1 [Compound I-1-159]	0.66	100	100	
Cc1cc(NC(=O)c2cccnc2)nn1Cn1nc(C)n(C2CC2)c1=O [Compound I-1-146]	1.05	100	100	
Cc1cc(NC(=O)c2cccnc2)nn1Cc1cn2nc(Cl)ccc2n1 [Compound I-1-351]	1.42	100		
O=C(Nc1nn(-c2ncccc2Cl)nc1C(F)(F)F)c1cccnc1 [Compound I-3-6]		100		log P (acid) [1, 8]: 1.89
Cc1cc(NC(=O)c2cccnc2)nn1S(=O)(=O)c1cccnc1 [Compound I-1-280]	1.45	100	80	
O=C(Nc1cnn(-c2ccc(C(F)(F)F)cn2)n1)c1cccnc1 [Compound I-3-14, N-{2-[5-(Trifluoromethyl)pyridin-2-yl]-2H-1,2,3-triazol-4-yl}nicotinamide]				chromatographic logP ([1]; reversed-phase HPLC column (C18), pH 2.7, Table 3, HPLC on reversed-phase column (C 18), 55° C., acidic range (pH 2.7 or pH 2.3), read-out: log P (acid)): 1.91; chromatographic logP ([1]; reversed-phase HPLC column (C18), pH 2.7, values given in the synthesis examples and NMR lists, read-out: HPLC-MS: log P): 1.91; pest or weed control at 6 ppm (Myzus persicae; Myzus persicae, application rate of 6 ppm in nutrient medium, read-out: efficacy (kill in %)): 100%; pest or weed control at 30 ppm (Myzus persicae; [7]): 100%
Cc1cc(NC(=O)c2cccnc2)nn1C(=O)N1CCCC1 [Compound I-1-161]	1.29	100	80	
Cc1cc(NC(=O)c2cccnc2)nn1Cc1nc(-c2ccccc2)no1 [Compound I-1-300]	2.01	100	100	
Cc1cc(NC(=O)c2cccnc2)nn1Cc1cn2cc(Cl)ccc2n1 [Compound I-1-160]	1.03	100	100	
Cn1cnc(NC(=O)c2cccnc2)n1 [Compound I-2-14]		100		log P (acid) [1, 4]: <−0.23
Cc1nc(NC(=O)c2cccnc2)n[nH]1 [Compound I-2-1]		100		log P (acid) [1, 4]: <−0.23

SMILES	log P (acid) ([1]; LC-MS in the acidic range)	efficacy (kill in %) (Myzus persicae; [2]) [%]	efficacy (kill in %) (Myzus persicae; [3]) [%]	further results
CCN(CC)C(=O)n1nc(NC(=O)c2cccnc2)cc1C [Compound I-1-290]	2.31	100	100	
COc1cccc(Cn2ccc(NC(=O)c3cccnc3)n2)c1 [Compound I-1-74]	1.57	100	100	
Cc1cn(Cc2ncccn2)nc1NC(=O)c1cccnc1 [Compound I-1-136, N-[4-Methyl-1-(pyrimidin-2-ylmethyl)-1H-pyrazol-3-yl]nicotinamide]				chromatographic logP [1, 5]: 0.44; chromatographic logP [1, 6]: 0.44; pest or weed control at 30 ppm (Myzus persicae; [7]): 100%
Cn1ncc(NC(=O)c2cccnc2)n1 [Compound I-3-2]		100		log P (acid) [1, 8]: 0.38
COC(=O)c1cccc(Cn2ccc(NC(=O)c3cccnc3)n2)c1 [Compound I-1-77]	1.57	100	100	
Cn1nc(NC(=O)c2cncc(F)c2)cc1C(F)F [Compound I-1-222]	1.51			
Cc1cc(NC(=O)c2ccnnc2)nn1Cn1nc(C2CC2)n(C2CC2)c1=O [Compound I-1-150]	1.33			
Cc1cc(N)nn1C(C)(C)C#N [II-1-37]				log P (acid) [1, 9]: 0.64
O=C(Nc1ncn(-c2c(Cl)cc(S(=O)(=O)C(F)(F)F)cc2Cl)n1)c1cccnc1 [Compound I-2-3]				log P (acid) [1, 4]: 2.02
Nc1ccn(C(CF)CF)n1 [II-1-7]				log P (acid) [1, 9]: −0.09
COc1nc(NC(=O)c2cccnc2)nn1-c1ccccc1 [Compound I-2-28]				log P (acid) [1, 4]: 1.23
Cc1cc(NC(=O)c2ccnnc2)nn1Cn1nc(C)n(C2CC2)c1=O [Compound I-1-151]	0.92			
Cc1cc(NC(=O)OC(C)(C)C)nn1Cc1ncccn1 [tert-Butyl[5-methyl-1-(pyrimidin-2-ylmethyl)-1H-pyrazol-3-yl]carbamate]				chromatographic logP [1, 6]: 1.75
COC(=O)c1cc(C)n(Cc2ncccn2)n1 [Methyl 5-methyl-1-(pyrimidin-2-ylmethyl)-1H-pyrazole-3-carboxylate]				chromatographic logP [1, 6]: 0.98
COc1cc(OC)nc(Cn2nc(NC(=O)c3ccnnc3)cc2C)n1 [Compound I-1-252]	1.5			
Cc1nc(NC(=O)c2cccnc2)nn1Cc1ncccn1 [Compound I-2-2]				log P (acid) [1, 4]: −0.05
Cc1cc(N)nn1-c1cnccn1 [II-1-6]				log P (acid) [1, 9]: 0.8
Cc1c(Br)c(N)nn1Cc1ncccn1 [II-1-34]				log P (acid) [1, 9]: 0.92
Cc1cc(N)nn1Cc1ccncc1 [II-1-18]				log P (acid) [1, 9]: 0.45
Cc1nn(-c2ccccc2Cl)nc1NC(=O)c1cccnc1 [Compound I-3-23]				log P (acid) [1, 8]: 1.71
N#Cc1cc(N)nn1Cc1ncccn1 [II-1-62]				log P (acid) [1, 9]: 0.20
Cc1nn(-c2ccccn2)nc1N [5-Methyl-2-(pyridin-2-yl)-2H-1,2,3-triazol-4-amine]				chromatographic logP [1, 6]: 0.74

Continued, in another order:

log P (acid) ([1]; LC-MS in the acidic range)	SMILES	efficacy (kill in %) (Myzus persicae; [2]) [%]	efficacy (kill in %) (Myzus persicae; [3]) [%]	further results
0.63	Cc1c(C#N)c(NC(=O)c2cccnc2)nn1Cc1ncccn1 [Compound I-1-194]	100		
1.67	CCc1cc(NC(=O)c2cccnc2)nn1Cc1ccc(Cl)nc1 [Compound I-1-58]	100	80	
1.0	N#Cc1cc(NC(=O)c2cccnc2)nn1Cc1ncccn1 [Compound I-1-269]	100	100	
1.77	Cc1cc(NC(=O)c2cccnc2)nn1CC(F)(F)c1ccc(F)cn1 [Compound I-1-294]	100		
0.5	Cc1cc(NC(=O)c2cccnc2)nn1C[S+]([O-])c1ncccn1 (centres unmarked) [Compound I-1-235]	100	80	
1.19	Cc1cc(N(CC(F)F)C(=O)c2cccnc2)nn1Cc1ncccn1 [Compound I-1-265]	100	100	
1.76	Cc1cc(NC(=O)c2cncnc2)nn1Cc1ccccc1 [Compound I-1-66]	100		
1.9	Cc1ccc2oc(Cn3nc(NC(=O)c4cccnc4)cc3C)nc2c1 [Compound I-1-353]	100	100	
1.7	CSCCCNC(=O)n1nc(NC(=O)c2cccnc2)cc1C [Compound I-1-165]	100	100	
1.59	COc1cc(OC)nc(Cn2nc(NC(=O)c3cccnc3)cc2C)n1 [Compound I-1-53]	100	100	
1.42	Cc1cc(NC(=O)c2cccnc2)nn1Cc1ccc(Cl)nc1 [Compound I-1-21]	100	100	
